Five compounds from ChEMBL document CHEMBL5356976, “Discovery of an adjuvant that resensitizes polymyxin B-resistant bacteria” (2024) can be followed below.

The test system of assay [1] is Escherichia coli. Briefly: Synergistic antibacterial activity against polymyxin B resistant Escherichia coli MG1655 assessed as fractional inhibitory concentration by checkerboard assay. The class given is functional.
Assay [2] relates to Escherichia coli. Briefly: Synergistic antibacterial activity against polymyxin B resistant Escherichia coli MG1655 assessed as fold reduction in polymyxin B MIC by checkerboard assay. The assay is classed as functional.
Assay [3] deals with Escherichia coli. As to the kind of experiment: Additive antibacterial activity against Escherichia coli MG1655 assessed as fold reduction in polymyxin B MIC at 100 mg/L by checkerboard assay. The assay is classed as functional.
In assay [4] the test system is Staphylococcus aureus. As to the kind of experiment: Synergistic antibacterial activity against Staphylococcus aureus ATCC 29213 assessed as fold reduction in melittin activity at 75 mg/l by checkerboard assay. The assay is classed as functional.
For assay [5], the system named is Cell membrane. As to the kind of experiment: Induction of membrane permeabilization in polymyxin-B resistant Escherichia coli MG1655 assessed as fluorescence increase incubated for 10 mins in presence of polymyxin B by DiSC3(5) dye based fluorescence spectrometer analysis. The class given is subcellular.
The test system of assay [6] is Cell membrane. Briefly: Induction of membrane permeabilization in polymyxin-B resistant Escherichia coli MG1655 assessed as fluorescence increase incubated for 10 mins in presence of triton X-100 by DiSC3(5) dye based fluorescence spectrometer analysis. The class given is subcellular.
The subject of assay [7] is Cell membrane. As to the kind of experiment: Induction of membrane permeabilization in polymyxin-B resistant Escherichia coli MG1655 assessed as increase in fluorescence by DiSC3(5) staining based fluorescence spectrometer analysis (reference value: 8.5). The class given is subcellular.
In assay [8] the test system is Cell membrane. As to the kind of experiment: Induction of membrane permeabilization in polymyxin-B resistant Escherichia coli MG1655 assessed as increase in fluorescence after 4 mins by DiSC3(5) staining based fluorescence spectrometer analysis (reference value: 8.5). The class given is subcellular.
Assay [9] relates to Escherichia coli. Briefly: Antibacterial activity against polymyxin-B resistant Escherichia coli MG1655. The assay is classed as functional.
Assay [10] has as its system Escherichia coli. Briefly: Antibacterial activity against Escherichia coli MG1655. The class given is functional.
The test system of assay [11] is Escherichia coli. As to the kind of experiment: Antibacterial activity against resistant Escherichia coli MG1655. The assay is classed as functional.
In assay [12] the test system is Escherichia coli. Briefly: Antibacterial activity against Escherichia coli MG1655 in presence of 6.25 mg/l perforone. The assay is classed as functional.
The subject of assay [13] is Escherichia coli. As to the kind of experiment: Antibacterial activity against Escherichia coli MG1655 in presence of 50 mg/l perforone. The assay is classed as functional.

Converted amounts (≈) assume the structure as drawn. The source made the active and inactive calls. The rule behind the calls is not given here. Bridge positions count the residues as written; N and C are the ends. Square brackets hold non-standard residues; d marks the D form. Peptide text beside a SMILES is read from it. * marks the point of attachment. X1 = CC[C@H](C)CCCCC(=O)*; Dab = NCC[C@H](N)C(=O)O

For the compound `COc1c2c(nc3occc13)[C@@]1(OC)CCC(C)(C)O[C@@]1(O)CC2`, the FIC in assay [1] is on record as 0.19. The “fold change (FC)” value in assay [2] came to 16; in assay [3], 2; in assay [4] it was 2. Further, the result in [5] and in assay [6] was inactive. Besides, the Flu intensity in [7] is 29.2 a.u; in assay [8], 19.7 a.u.
`CC(C)C[C@@H]1NC(=O)[C@@H](Cc2ccccc2)NC(=O)[C@H](CCN)NC(=O)[C@@H](NC(=O)[C@H](CCN)NC(=O)[C@@H](NC(=O)[C@@H](N)CCN)[C@@H](C)O)CCNC(=O)[C@H]([C@@H](C)O)NC(=O)[C@H](CCN)NC(=O)[C@H](CCN)NC1=O` (H-[Dab]T[Dab][Dab][Dab][dF]L[Dab][Dab]T; lactam 4-C): the outcome in assay [9] was Active.
For the compound `CC[C@H](C)CCCCC(=O)N[C@@H](CCN)C(=O)N[C@H](C(=O)N[C@@H](CCN)C(=O)N[C@H]1CCNC(=O)[C@H]([C@@H](C)O)NC(=O)[C@H](CCN)NC(=O)[C@H](CCN)NC(=O)[C@H](CC(C)C)NC(=O)[C@@H](Cc2ccccc2)NC(=O)[C@H](CCN)NC1=O)[C@@H](C)O` (X1-[Dab]T[Dab][Dab][Dab][dF]L[Dab][Dab]T; lactam 4-C), the MIC in [10] was 0.5 mg/L (≈ 0.415 µM); in assay [11] it was 256 mg/L (≈ 213 µM); in assay [9] it was 256 mg/L (≈ 213 µM); in assay [12] it was 2 mg/L; in assay [13], 16 mg/L.
With `CC[C@H]1OC(=O)[C@H](C)[C@@H](O[C@H]2C[C@@](C)(OC)[C@@H](O)[C@H](C)O2)[C@H](C)[C@@H](O[C@@H]2O[C@H](C)C[C@H](N(C)C)[C@H]2O)[C@](C)(O)C[C@@H](C)CN(C)[C@H](C)[C@@H](O)[C@]1(C)O` [AZITHROMYCIN], the MIC in [10] was 4 mg/L (≈ 5.34 µM); in assay [11], 128 mg/L (≈ 171 µM).
The matching figures for `C[C@H]1c2cccc(O)c2C(=O)C2=C(O)[C@]3(O)C(=O)C(C(N)=O)=C(O)[C@@H](N(C)C)[C@@H]3[C@@H](O)[C@@H]21.O` [DOXYCYCLINE]: 0.25 mg/L and 60 mg/L.

Usually MIC stands for the lowest concentration that inhibits growth of the organism.
